Key:
[1] = molecular target: T1, Recombinant MDH (Apium graveolens, UniProt Q38707, C47S/T120I); assay: Relative reaction rates of substrates with recombinantly expressed MDH (NADH formation measured spectrophotometrically); format: biochemical; details: relative to D-mannitol = 100%; MDH expressed in E. coli
T1 construct: made in house; host or cells: E. coli BL21 (pTTQ18 plasmid, tac promoter)
Description: (§1) Many different variables were studied to maximize the expression and activity of MDH. MDH activity was monitored with the conversion of D-mannitol to D-mannose in the presence of NAD. The conversion was monitored spectrophotometrically by measuring the increasing concentration of NADH, the cofactor product of the oxidation of mannitol to mannose. For a given experiment, lysate protein concentrations were normalized.
Substrate specificity of the recombinant MDH was also tested and compared with the published data on the natively expressed MDH. Recombinant expression of MDH in E. coli could cause subtle modifications to the tertiary structure of MDH and modify the substrate specificity. Several known substrates of the MDH were tested.[16]
The reaction rate of L-fucitol for recombinant MDH was tested. […] The fucitol was not originally characterized in the previous literature on MDH.[38]

[2] = molecular target: T2, Native MDH (Apium graveolens, UniProt Q38707); details: cited from earlier work; for Relative reaction rate, Native MDH: relative to D-mannitol = 100%, natively expressed MDH
T2 construct: compared with the published data on the natively expressed MDH; host or cells: celery (Apium graveolens)
T2 sequence (Q38707 1-365): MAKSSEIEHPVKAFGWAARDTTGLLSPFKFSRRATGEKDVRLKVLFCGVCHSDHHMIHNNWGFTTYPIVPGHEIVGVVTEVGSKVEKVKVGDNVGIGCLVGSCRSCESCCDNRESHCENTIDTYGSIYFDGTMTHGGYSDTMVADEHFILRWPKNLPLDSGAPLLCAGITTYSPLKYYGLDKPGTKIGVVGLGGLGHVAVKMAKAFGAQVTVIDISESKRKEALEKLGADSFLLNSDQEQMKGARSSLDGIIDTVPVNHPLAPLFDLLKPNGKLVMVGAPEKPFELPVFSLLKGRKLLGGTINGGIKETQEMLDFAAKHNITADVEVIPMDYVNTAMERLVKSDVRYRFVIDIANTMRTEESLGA

[3] = molecular target: T3, Apium gravelons mannitol-1-dehydrogenase (MDH) (Apium graveolens, UniProt Q38707, C47S/T120I); assay: MDH activity in lysate with added divalent metal salts, D-mannitol and NAD at pH 9.0; format: biochemical
T3 construct: made in house; host or cells: E. coli BL21 (pTTQ18 plasmid, tac promoter)
T3 sequence (Q38707 whole entry C47S/T120I): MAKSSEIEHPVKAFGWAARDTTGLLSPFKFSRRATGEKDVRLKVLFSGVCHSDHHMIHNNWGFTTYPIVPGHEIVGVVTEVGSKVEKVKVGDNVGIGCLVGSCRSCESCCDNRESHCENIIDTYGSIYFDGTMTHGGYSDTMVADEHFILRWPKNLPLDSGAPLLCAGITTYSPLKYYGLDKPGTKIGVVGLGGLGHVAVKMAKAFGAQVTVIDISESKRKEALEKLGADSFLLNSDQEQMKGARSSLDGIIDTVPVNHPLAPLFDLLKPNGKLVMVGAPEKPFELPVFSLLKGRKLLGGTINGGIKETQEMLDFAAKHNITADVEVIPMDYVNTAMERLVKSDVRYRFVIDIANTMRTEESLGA
Description: While not explicitly described in the literature, Apium gravelons mannitol-1-dehydrogenase (MDH) requires divalent metal ions, particularly Zn^2+ ions, for activity. The presence of ZnSO4 increases MDH activity. Cells expressing MDH were grown in rich media were harvested and lysed with BUGBUSTER® protein extraction reagent, Novagen, Madison, Wis. MDH activity was then tested with increasing concentrations of ZnSO4 in the presence of D-mannitol and NAD cofactor at pH 9.0. See, FIG. 1.

[4] = format: biochemical, Apium graveolens
Description: as §1
The pH profile for MDH for the oxidation reactions was also tested. […] This range could be beneficial for in vitro bioconversions with enzymatic NAD cofactor recycling methods. Increasing the activity of MDH at neutral pH could improve in vivo fermentation activity as the interior of the E. coli cell has a pH lower than 9.0.[21]
The recombinant MDH was tested for activity at various temperatures. Lysates containing expressed MDH were incubated with D-mannitol and NAD at pH 9.0. Activity was measured by measuring the increased NADH concentration spectrophotometrically at A340nm. […] See, FIG. 12.
The thermostability of recombinant MDH was also tested. Lysates containing MDH were incubated at various temperatures. Aliquots of MDH were removed at various times to measure MDH activity using the assay described above. See, FIG. 13.

T1 sequence (Q38707 whole entry C47S/T120I): as above

Compound | Relative reaction rate, Recombinant MDH [1] | Relative reaction rate, Native MDH [2] | also measured
OC[C@@H](O)[C@H](O)[C@@H](O)CO [Xylitol] | 1% | 0% | Conversion of xylitol to L-xylose by wild-type MDH ([2]; wild-type MDH): does not convert
O=S(=O)([O-])[O-].[Ni+2] [NiSO4] |  |  | Inhibition of MDH activity ([3]; 0.1 mM NiSO4 compared to MDH without NiSO4 added): approximately 50%
OC[C@@H](O)[C@@H](O)[C@H](O)[C@@H](O)CO [D-Sorbitol] | 5% | 22% | 
MDH: NAD-dependent mannitol-1-dehydrogenase from Apium graveolens, recombinantly expressed in E. coli |  |  | Thermostability (loss of activity on incubation) [4]: Most MDH activity was lost; Residual activity at pH 7.0 ([4]; pH 7.0, relative to maximum at pH 9.0): 10%
OC[C@@H](O)[C@@H](O)[C@H](O)[C@H](O)CO [D-Mannitol] | 100% | 100% | 
C[C@H](O)[C@@H](O)[C@@H](O)[C@H](O)CO [L-fucitol] | 10.5% |  | 
OC[C@@H](O)C(O)[C@H](O)CO [D-Arabitol] | 33% | 37% | 
OC[C@@H](O)[C@@H](O)[C@@H](O)CO [Ribitol] | 50% | 36% | 
OC[C@@H](O)[C@@H](O)CO [Erythritol] | 4% | 16% | 
O=S(=O)([O-])[O-].[Zn+2] [Zn^2+, ZnSO4] |  |  | Increase of MDH activity ([3]; 1 μM Zn^2+ ions compared to no added zinc): 50%; Effect on MDH activity at concentrations above 1 μM ([3]; concentrations above 1 μM): inhibition
